pIC50: −log10 of the molar value.
Columns and labels:
[1] = target: IDO (Homo sapiens, UniProt P14902); assay: LLE_IDO_ABS_DR (IDO assay)
[2] = target: T1, Human IDO1 (Homo sapiens, UniProt P14902); assay: IDO Kynurenine Assay with Human IDO1/HEK293 Cells; type: cell-based; settings: read-out: HEK human IDO-1 (IC50)
T1 construct: expressed in transfected cells; host or cells: HEK293
How it was run: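 HEK293 cells stably expressing human IDO1, in phenol red-free RPMI/10% FBS, exposed to compound for 20 h at 37 °C. Stopped with 0.2% TCA (50 °C, 30 min); kynurenine in supernatant detected with Ehrlich reagent, absorbance 490 nm.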

T1 sequence (P14902 whole entry): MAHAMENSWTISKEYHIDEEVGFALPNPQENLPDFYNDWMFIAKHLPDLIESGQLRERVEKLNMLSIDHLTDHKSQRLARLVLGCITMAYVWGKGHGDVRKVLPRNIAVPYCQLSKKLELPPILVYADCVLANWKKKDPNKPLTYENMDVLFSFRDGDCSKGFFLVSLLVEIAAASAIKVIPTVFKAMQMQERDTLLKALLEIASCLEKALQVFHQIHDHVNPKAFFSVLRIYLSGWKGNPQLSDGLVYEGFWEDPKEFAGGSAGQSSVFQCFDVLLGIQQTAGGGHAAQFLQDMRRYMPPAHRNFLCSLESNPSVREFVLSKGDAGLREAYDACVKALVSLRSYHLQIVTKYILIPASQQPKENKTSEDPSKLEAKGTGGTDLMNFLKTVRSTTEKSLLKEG
Sequence of IDO (P14902 whole entry): as above

Compound	pIC50 [1]	pIC50 [2]
Cc1ccc(NC(=O)Nc2cc(-c3ccccc3-c3nnn[nH]3)ccc2N2CC3CC2CN3Cc2ccccc2)cc1 (centres unmarked) [Example 317, 1-(4-(5-benzyl-2,5-diazabicyclo[2.2.1]heptan-2-yl)-2′-(1H-tetrazol-5-yl)-[1,1′-biphenyl]-3-yl)-3-(p-tolyl)urea]	7.52	7.30
Cc1ccc(NC(=O)Nc2cc(-c3ccccc3-c3nnn[nH]3)ccc2N(CC(C)C)C2CCOCC2)cc1 [Example 379]	7.70	7.52
Cc1ccc(NC(=O)Nc2cc(-c3cc(F)ccc3C(=O)O)ccc2N(CC(C)C)CC(C)C)cc1 [Example 126, 4′-(diisobutylamino)-5-fluoro-3′-(3-p-tolylureido)biphenyl-2-carboxylic acid]	7.70	8.00
Cc1ccc(NC(=O)Nc2cc(-c3ccccc3-c3nnn[nH]3)ccc2N2C[C@@H]3C[C@H]2CN3c2ccc(F)cc2)cc1 [Example 383]	7.15	6.89
Cc1ccc(NC(=O)Nc2cc(-c3ccc(Cl)cc3C(=O)O)ccc2N(CC(C)C)CC(C)C)cc1 [Example 127, 4-chloro-4′-(diisobutylamino)-3′-(3-p-tolylureido) biphenyl-2-carboxylic acid]	6.89	7.10
O=C(Nc1ccc(C(F)(F)F)cc1F)Nc1cc(-c2ccccc2-c2nnn[nH]2)ccc1N(CCC(F)(F)F)Cc1ccc(OC(F)(F)F)cc1 [Example 301, 1-(2′-(1H-tetrazol-5-yl)-4-((4-(trifluoromethoxy)benzyl)(3,3,3-trifluoropropyl)amino)-[1,1′-biphenyl]-3-yl)-3-(2-fluoro-4-(trifluoromethyl)phenyl)urea]	8.55	8.10
O=C(Nc1ccc(OC(F)(F)F)cc1)Nc1cc(-c2ccccc2-c2nnn[nH]2)ccc1N(CCC(F)(F)F)Cc1ccc(OC(F)(F)F)cc1 [Example 503, 1-(2′-(1H-Tetrazol-5-yl)-4-((4-(trifluoromethoxy)benzyl)(3,3,3-trifluoropropyl)amino)-[1,1′-biphenyl]-3-yl)-3-(4-(trifluoromethoxy)phenyl)urea]	8.65	8.00
CC(C)CN(c1ccc(-c2ccccc2-c2nnn[nH]2)cc1NC(=O)Nc1ccc(OC(F)(F)F)cc1)C1CCC(F)(F)CC1 [Example 514, 1-(4((4,4-Difluorocyclohexyl)(isobutyl)amino)-2′-(1H-tetrazol-5-yl)-[1,1′-biphenyl]-3-yl)-3-(4-(trifluoromethoxy)phenyl)urea]	8.00	7.70
Cc1ccc(NC(=O)Nc2cc(-c3cc(F)ccc3-c3nnn[nH]3)ccc2N(CC(C)C)CC(C)C)cc1 [Example 483]	8.21	8.13
Cc1ccc(NC(=O)Nc2cc(-c3ccccc3C(=O)O)ccc2N(CCC(F)(F)F)Cc2ccc(Cl)cc2)cc1 [Example 14, 4′-((4-Chlorobenzyl)(3,3,3-trifluoropropyl)amino)-3′-(3-(p-tolyl)ureido)-[1,1′-biphenyl]-2-carboxylic acid]	7.10	7.00
C=C(C)CN(CC(F)(F)F)c1ccc(-c2cc(F)ccc2C(=O)O)cc1NC(=O)Nc1ccc(C)cc1 [Example 473]	7.15	7.22
Cc1ccc(NC(=O)Nc2cc(-c3ccccc3-c3nnn[nH]3)ccc2N(CCC(F)(F)F)Cc2ccc(OC(F)(F)F)cc2)cc1 [Example 341, 1-(2′-(1H-tetrazol-5-yl)-4-((4-(trifluoromethoxy)benzyl)(3,3,3-trifluoropropyl)amino)-[1,1′-biphenyl]-3-yl)-3-(p-tolyl)urea]	8.76	9.07
Cc1ccc(NC(=O)Nc2cc(-c3ccccc3-c3nnn[nH]3)ccc2N2CCCc3ccccc32)cc1 [Example 361, 1-(4-(3,4-Dihydroquinolin-1(2H)-yl)-2′-(1H-tetrazol-5-yl)-[1,1′-biphenyl]-3-yl)-3-(p-tolyl)urea]	6.96	6.66
O=C(Nc1ccc(C2CC2)cc1)Nc1cc(-c2ccccc2-c2nn[nH]n2)ccc1N1CC2CC1CN2Cc1ccccc1 (centres unmarked) [Example 348, 1-(4-(5-benzyl-2,5-diazabicyclo[2.2.1]heptan-2-yl)-2′-(2H-tetrazol-5-yl)-[1,1′-biphenyl]-3-yl)-3-(4-cyclopropylphenyl)urea]	8.00	8.00
O=C(Nc1ccc(C(F)(F)F)cc1F)Nc1cc(-c2ccccc2-c2nnn[nH]2)ccc1N(CCC(F)(F)F)Cc1ccccn1 [Example 303, 1-(2-fluoro-4-(trifluoromethyl)phenyl)-3-(4-((pyridin-2-ylmethyl)(3,3,3-trifluoropropyl)amino)-2′-(1H-tetrazol-5-yl)-[1,1′-biphenyl]-3-yl)urea]	7.30	6.55
O=C(Nc1ccc(F)cc1F)Nc1cc(-c2ccccc2-c2nnn[nH]2)ccc1N(CCC(F)(F)F)Cc1ccc(F)cc1C(F)(F)F [Example 340, 1-(2,4-difluorophenyl)-3-(4-((4-fluoro-2-(trifluoromethyl)benzyl) (3,3,3-trifluoropropyl)amino)-2′-(1H-tetrazol-5-yl)-[1,1′-biphenyl]-3-yl)urea]	7.52	7.40
CC(C)CN(CC(C)C)c1ccc(-c2cc(F)ccc2-c2nnn[nH]2)cc1NC(=O)Nc1ccccc1F [Example 484]	8.60	8.00
Cc1ccc(NC(=O)Nc2cc(-c3cc(F)ccc3-c3nnn[nH]3)c(F)cc2N(CC(C)C)C2CCCCC2)cc1 [Example 355, 1-(4-(cyclohexyl(isobutyl)amino)-5′,6-difluoro-2′-(1H-tetrazol-5-yl)-[1,1′-biphenyl]-3-yl)-3-(p-tolyl)urea]	8.63	8.48
O=C(Nc1ccc(F)cc1F)Nc1cc(-c2ccccc2-c2nnn[nH]2)ccc1N(CCC(F)(F)F)Cc1ccc(OC(F)(F)F)cc1 [Example 504, 1-(2′-(1H-Tetrazol-5-yl)-4-((4-(trifluoromethoxy)benzyl)(3,3,3-trifluoropropyl)amino)-[1,1′-biphenyl]-3-yl)-3-(2,4-difluorophenyl)urea]	9.40	8.29
Cc1ccc(NC(=O)Nc2cc(-c3cc(F)ccc3C(=O)O)c(F)cc2N(CC(C)C)C2CCCCC2)cc1 [Example 231]	8.56	8.67

Compound	pIC50 [1]	pIC50 [2]
Cc1cc(NC(=O)Nc2cc(-c3ccccc3-c3nnn[nH]3)ccc2N(CC(C)C)CC2CC(F)(F)C2)on1 [Example 382]	6.30	6.46
O=C(Nc1ccc(C2CC2)c(F)c1)Nc1cc(-c2ccccc2-c2nnn[nH]2)ccc1N(CCC(F)(F)F)Cc1ccc(OC(F)(F)F)cc1 [Example 353, 1-(2′-(1H-tetrazol-5-yl)-4-((4-(trifluoromethoxy)benzyl)(3,3,3-trifluoro-propyl)amino)-[1,1′-biphenyl]-3-yl)-3-(4-cyclopropyl-3-fluorophenyl)urea]	8.29	8.63
O=C(Nc1ccc(OC(F)(F)F)cc1)Nc1cc(-c2ccccc2-c2nnn[nH]2)ccc1N(CCCC(F)(F)F)Cc1ccc(Cl)cc1 [Example 322, 1-(4-((4-chlorobenzyl)(4,4,4-trifluorobutyl)amino)-2′-(1H-tetrazol-5-yl)-[1,1′-biphenyl]-3-yl)-3-(4-(trifluoromethoxy)phenyl)urea]	7.22	6.66
Cc1ccc(NC(=O)Nc2cc(-c3cc(F)ccc3C(=O)O)c(F)cc2N(CC(C)C)CC(C)C)cc1 [Example 426]	–	8.05
CCC(CC)N(CC(C)C)c1ccc(-c2cc(F)ccc2C(=O)O)cc1NC(=O)Nc1ccccc1F [Example 450]	–	8.26
CC(C)CN(CC(C)C)c1ccc(-c2cccc(OC(F)(F)F)c2C(=O)O)cc1NC(=O)Nc1ccc(Cl)cc1F [Example 496]	–	8.00
CC(C)CN(c1cc(F)c(-c2cc(F)ccc2C(=O)O)cc1NC(=O)Nc1ccc(C(F)(F)F)nc1)C1CCCCC1 [Example 517, 4′-(Cyclohexyl(isobutyl)amino)-2′,5-difluoro-5′-(3-(6-(trifluoromethyl)pyridin-3-yl)ureido)-[1,1′-biphenyl]-2-carboxylic acid]	–	7.15
Cc1cc(NC(=O)Nc2cc(-c3ccccc3C(=O)O)ccc2N(CC(C)C)C2CCCCC2)on1 [Example 377]	–	8.77
Cc1cc(NC(=O)Nc2cc(-c3cc(F)ccc3C(=O)O)c(F)cc2N(CC(C)C)[C@@H]2C[C@H]3CC[C@@H]2C3)no1 [Example 385]	–	6.70
CCC(CC)N(CC(C)C)c1ccc(-c2ccccc2C(=O)O)cc1NC(=O)Nc1ccc(C)cc1 [Example 443]	–	8.00
Cc1cc(NC(=O)Nc2cc(-c3cc(F)ccc3C(=O)O)c(F)cc2N(CC(C)C)C2CCC(F)(F)CC2)on1 [Example 521, 4′-((4,4-Difluorocyclohexyl)(isobutyl)amino)-2′,5-difluoro-5′-(3-(3-methylisoxazol-5-yl)ureido)-[1,1′-biphenyl]-2-carboxylic acid]	–	8.07
CC(C)CN(CC(C)C)c1ccc(-c2ccccc2-c2nnn[nH]2)cc1NC(=O)NC1CCCC1 [Example 464]	–	6.10
CCOc1ccc(NC(=O)Nc2cc(-c3cccc(C)c3C(=O)O)ccc2N(CC(C)C)CC(C)C)cc1 [Example 545]	–	7.22
CCc1ccc(NC(=O)Nc2cc(-c3ccccc3-c3nnn[nH]3)ccc2N(CC(C)C)CC(C)C)cc1 [Example 459]	–	8.15
COCCN(c1ccc(-c2ccccc2C(=O)O)cc1NC(=O)Nc1ccc(Cl)cc1F)C1CCCCC1 [Example 456]	–	9.06
COc1ccc(-c2ccc(N(CC(C)C)CC(C)C)c(NC(=O)Nc3ccc(Cl)cc3F)c2)c(C(=O)O)c1 [Example 494]	–	7.52
COc1cccc(-c2ccc(N(CC(C)C)CC(C)C)c(NC(=O)Nc3ccc(C#N)nc3)c2)c1C(=O)O [Example 499]	–	5.90
CCC(CC)N(CC(C)C)c1ccc(-c2cc(F)ccc2C(=O)O)cc1NC(=O)Nc1ccc(C)cc1 [Example 439]	–	8.00
CCC(CC)N(CC(C)C)c1ccc(-c2ccccc2C(=O)O)cc1NC(=O)Nc1ccc(Cl)cc1F [Example 440]	–	8.81
